Data set [1] concerns mushroom tyrosinase. Put plainly: Mushroom tyrosinase inhibition assay (dopachrome, 475 nm). Type of data set: biochemical. Conditions: for IC50: mushroom tyrosinase. Here is the method: The ability of the BMTTZD analogs to inhibit mushroom tyrosinase was evaluated in the presence of L-dopa and L-tyrosine as previously described.
In data set [2] the target is mushroom tyrosinase (Agaricus bisporus, UniProt C7FF04). Put plainly: Kinetic study of mushroom tyrosinase inhibition (Lineweaver–Burk and Dixon plots). In kind it is biochemical. The conditions noted are these: for type of tyrosinase inhibition (Lineweaver–Burk plots): substrate L-dopa 0.5–16 mM. Here is the method:
The initial rate of dopachrome generation was examined at various BMTTZD analog concentrations (0, 1.5, 3, and 6 µM for analog 1; 0, 2, 4, and 8 µM for analogs 2 and 5; and 0, 0.05, 0.1, and 0.2 µM for 3) with 0.5, 1, 2, 4, 8, or 16 mM L-dopa as substrates using mushroom tyrosinase. Plotting the reciprocal of the dopachrome formation rate against the inverse of the L-dopa concentration produced Lineweaver–Burk plots (Figure 2). Each Lineweaver–Burk plot created four straight lines with different slopes. For analogs 1 and 3, the four straight lines met at a point on the y-axis, whereas for analogs 2 and 5, the four straight lines converged at a point in the second quadrant.
The Dixon plots produced lines that met in the second quadrant. The x-coordinate of the convergence position represents the inhibition constant (Ki) of the ligand.
Lineweaver–Burk (L-B) plots were acquired for the kinetic analysis of analogs against mushroom tyrosinase as previously described. In brief, 10 µL of a solution of DMSO and BMTTZD analogs 1–3 or 5 (final concentrations: 0, 1.5, 3, and 6 µM for analog 1; 0, 2, 4, and 8 µM for analogs 2 and 5; and 0, 0.05, 0.1, and 0.2 µM for analog 3) in each well of a 96-well plate was mixed with 20 µL of aqueous mushroom tyrosinase solution (200 units/mL) and 170 µL of an aqueous substrate mixture (various concentrations of L-dopa (final concentrations: 16, 8, 4, 2, 1 and 0.5 mM) and 17.2 mM sodium phosphate buffer (pH 6.5)). During incubation (15 min at 37 °C), the increase in the well absorbance (ΔOD475/min) was calculated at 1 min intervals utilizing a VersaMax® reader.

Data set [3] concerns B16F10 cells. Put plainly: Cell cytotoxicity test (EZ-Cytox). In kind it is cell-based, murine. Conditions: 2.5–20 µM, 48 and 72 h. The protocol: Because analogs 1–3 and 5 exerted potent mushroom tyrosinase inhibitory activities, their effects on anti-melanogenic and cellular tyrosinase activities were evaluated in B16F10 murine cells. Prior to examining their cellular activity, their cell viabilities were investigated. Cell viability was evaluated at 48 and 72 h after treatment with five different concentrations of analogs.
The effect on B16F10 cytotoxicity was assessed following a previously described method. Cells (1 × 10^4 cells/well of a 96-well plate) were cultivated for 24 h with 5% CO2 at 37 °C. The cells were exposed to the BMTTZD analogs (test concentrations: 20, 10, 5, 2.5, and 0 µM) and cultivated with 5% CO2 at 37 °C for 72 h. An EZ-Cytox solution (10 µL; EZ-500, DoGenBio, Seoul, Republic of Korea) was exposed to each well, and the plate was cultivated for 2 h. Cell viability was calculated from the well absorbance measured at 450 nm utilizing a reader (VersaMax®).

The target in data set [4] is T1, B16F10 cellular tyrosinase (Mus musculus, UniProt P11344).
T1 construct: host or cells: B16F10 cells
T1 sequence (P11344 19-533): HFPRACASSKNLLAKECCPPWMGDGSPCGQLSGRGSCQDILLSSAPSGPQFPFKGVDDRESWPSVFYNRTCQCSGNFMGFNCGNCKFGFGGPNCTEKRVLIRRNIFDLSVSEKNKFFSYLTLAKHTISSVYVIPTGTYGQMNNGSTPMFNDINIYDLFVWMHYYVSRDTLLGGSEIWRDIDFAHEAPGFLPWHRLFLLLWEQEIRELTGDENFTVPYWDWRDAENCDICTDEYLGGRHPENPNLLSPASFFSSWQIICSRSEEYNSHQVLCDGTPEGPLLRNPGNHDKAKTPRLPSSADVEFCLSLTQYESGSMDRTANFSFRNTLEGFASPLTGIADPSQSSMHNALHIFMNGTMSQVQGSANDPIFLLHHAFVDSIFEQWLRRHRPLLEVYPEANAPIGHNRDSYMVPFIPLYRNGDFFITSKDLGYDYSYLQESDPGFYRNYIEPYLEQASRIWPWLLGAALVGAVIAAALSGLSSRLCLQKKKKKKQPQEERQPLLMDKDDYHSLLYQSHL
Put plainly: Cellular tyrosinase activity assay in B16F10 cells stimulated with IBMX plus α-MSH. Type of data set: cell-based, murine. The conditions noted are these: 72 h; for effect on stimulator-induced cellular tyrosinase activity: 5, 10, 20 µM, IBMX plus α-MSH. Here is the method:
Analogs 1, 3, and 5 were exposed to B16F10 cells at various concentrations (20, 10, 5, and 0 µM) before exposure to IBMX (200 µM; 3-isobutyl-1-methylxanthine) and α-MSH (1 µM; α-melanocyte-stimulating hormone). After incubation (72 h), B16F10 cellular tyrosinase activity was determined. […] It was examined whether the cellular tyrosinase inhibition of the BMTTZD analogs could influence B16F10 cellular melanin contents.
Effects on B16F10 tyrosinase inhibition were evaluated as previously described. A 6-well plate containing 1 × 10^5 B16F10 cells/well was cultivated for 23 h under conditions identical to those of the cell culture. […] The cells were cultivated for 72 h. After washing 2 times with PBS, the cells were lysed in a 100 µL lysis buffer, including phenylmethylsulfonyl fluoride (5 µL; 1 mM), Triton X-100 (5 µL; 1%), and phosphate buffer (90 µL; 50 mM (pH 6.5)). After 30 min incubation at −80 °C, the cell lysates were centrifuged at 4 °C for 30 min. The supernatants (80 µL) of the lysates were moved to each well of a microplate and mixed with 20 µL 10 mM L-dopa.

Data set [5] concerns B16F10 cells. Put plainly: Melanin content assay in B16F10 cells. In kind it is cell-based, murine. Conditions: 72 h; for effect on intracellular melanin contents enhanced by IBMX plus α-MSH: 5, 10, 20 µM. The protocol: We examined whether the ability of analogs 1, 3, and 5 to inhibit intracellular tyrosinase activity could affect intracellular melanin levels. B16F10 cells were utilized as mammalian cells. IBMX and α-MSH were used at 200 µM and 1 µM, respectively, to increase melanin biosynthesis. […] For the intracellular melanin content determination, the absorbance at 405 nm was evaluated after 72 h of incubation.
The effect of BMTTZD analogs on melanin biosynthesis was investigated following a previously described method. A 6-well microplate containing 1 × 10^5 B16F10 cells/well was cultivated for 23 h under conditions identical to those of the cell culture. […] After exposure to IBMX and α-MSH, B16F10 cells were cultivated for 72 h at 37 °C. The cells were rinsed 2 times with PBS, treated with 1N-NaOH aqueous solution (100 µL), and cultivated at 60 °C for 1 h. The lysates were moved to a microplate. At 405 nm, the well absorbance was measured utilizing a VersaMax® reader. Each experiment was carried out three times independently.

The target of data set [6] is T1, B16F10 cellular tyrosinase. Put plainly: In situ cellular tyrosinase activity assay using L-dopa staining. Conditions: 72 h; for effect on stimulator-raised in situ intracellular tyrosinase activity (L-dopa staining): analogs 5, 10, 20 µM, kojic acid 20 µM. Type of data set: cell-based, murine. Here is the method:
Because tyrosinase plays a critical role in melanogenesis, in situ intracellular tyrosinase activity was measured. The in situ intracellular tyrosinase activity was evaluated in B16F10 cells following a previously reported procedure. Stimulators (α-MSH plus IBMX) were exposed to cells to raise tyrosinase activity levels, and analogs 1, 3, and 5 were treated at 20, 10, and 5 µM for 72 h. After fixation and permeabilization using paraformaldehyde and Triton X-100, the cells were stained with L-dopa.
A 24-well plate containing 1 × 10^3 B16F10 cells/well was cultivated for 24 h under conditions identical to those of the cell culture. […] The cells were then cultivated under conditions identical to those of the cell culture for 72 h. Cultivated cells were fixed for 40 min with paraformaldehyde (4%), washed 2 times with PBS, and permeabilized with Triton X-100 (0.1%) for 2 min. After washing 2 times with PBS, the cells in the 24-well plate were stained with a 2 mM L-dopa aqueous solution (500 µL/well) for 2 h at 37 °C. Staining was photographed and analyzed utilizing a camera connected to a microscope (Motic, Hong Kong).

Data set [7] is described as follows: DPPH radical scavenging activity assay. The conditions noted are these: 500 µM. Here is the method:
First, the ability of BMTTZD analogs 1–8 to scavenge DPPH radicals was examined using L-ascorbic acid (vitamin C; positive control). All samples were tested at 500 µM.
The ability of the BMTTZD analogs to scavenge DPPH radicals was evaluated as previously reported. To each well of a 96-well plate containing analogs 1–8 (5 mM in […]; 20 µL) was added a DPPH solution (0.2 mM in methanol; 180 µL). The mixture was kept in a place without light for 30 min at 25°C to generate DPPH radicals. The well absorbance at 517 nm was measured utilizing a VersaMax® reader. The ability of the analogs to remove DPPH radicals was compared to that of vitamin C.

[8] abbreviates: substrate L-dopa, read-out: IC50 (Mean ± SEM, µM) L-Dopa.
[9] abbreviates: substrate L-tyrosine, read-out: IC50 (Mean ± SEM, µM) L-Tyrosine.
Where [10] appears, read: analog at highest concentration tested (20 µM).

Structures are written as SMILES. Where two headings read alike, the source gives them in different places. Some results are limits rather than exact numbers.

mushroom tyrosinase (Agaricus bisporus, UniProt C7FF04), sequence (C7FF04 1-392): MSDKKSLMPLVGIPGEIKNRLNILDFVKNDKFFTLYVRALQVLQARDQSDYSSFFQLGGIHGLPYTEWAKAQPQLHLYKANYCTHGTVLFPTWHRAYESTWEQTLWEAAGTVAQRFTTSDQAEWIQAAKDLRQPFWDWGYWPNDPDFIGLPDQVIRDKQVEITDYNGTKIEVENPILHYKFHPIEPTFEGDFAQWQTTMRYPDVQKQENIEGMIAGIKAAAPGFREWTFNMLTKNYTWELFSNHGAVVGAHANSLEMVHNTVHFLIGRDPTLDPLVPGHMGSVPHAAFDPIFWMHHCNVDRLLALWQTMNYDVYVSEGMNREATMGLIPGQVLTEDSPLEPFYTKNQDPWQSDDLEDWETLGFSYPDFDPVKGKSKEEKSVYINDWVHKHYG

As for `CN1C(=O)/C(=C/c2ccc(O)cc2)SC1=S` [Analog 1, (Z)-5-(4-Hydroxybenzylidene)-3-methyl-2-thioxothiazolidin-4-one], the “reduction in tyrosinase inhibition relative to analog 3” value in the data set on mushroom tyrosinase [1] (substrate L-dopa) amounted to 17 fold. For the same molecule, the IC50 was 17.6 ± 0.62 µM on mushroom tyrosinase [1] (setting [8]) and 3.82 ± 0.22 µM at mushroom tyrosinase [1] (setting [9]). Moreover, the “tyrosinase inhibition, times stronger than kojic acid” value in the data set on mushroom tyrosinase [1] (substrate L-tyrosine) is “five times more strongly than kojic acid”. Also, the “type of tyrosinase inhibition (Lineweaver–Burk plots)” value on mushroom tyrosinase [2] is “competitive inhibitors”. In addition, the Ki at mushroom tyrosinase [2] (substrate L-dopa, read-out: inhibition constant (Ki) from Dixon plots) came to 6.2 µM. Moreover, in the data set with B16F10 cells [3], the “cytotoxicity (cell viability)” value is recorded as “did not exhibit cytotoxicity at ≤20 µM”. The “effect on stimulator-induced cellular tyrosinase activity” value in data set [4] is “concentration-dependently and significantly reduced”. Further, the “cellular tyrosinase inhibition compared with kojic acid (20 µM)” value in data set [4] (analog at 10 µM) is listed as “slightly more strongly than kojic acid”; in data set [4] (setting [10]), “stronger inhibitory effects than kojic acid”. Besides, the “intracellular melanin contents compared with kojic acid” value in the data set on B16F10 cells [5] (20 µM) is “levels similar to those in treatment with kojic acid”. Further, the “effect on intracellular melanin contents enhanced by IBMX plus α-MSH” value in the data set with B16F10 cells [5] is on record as “significantly reduced the melanin contents”. Further, in data set [6] (20 µM), the “in situ intracellular tyrosinase inhibition compared with kojic acid” value is listed as “weaker intracellular tyrosinase inhibition efficacy than kojic acid”. Further, the “effect on stimulator-raised in situ intracellular tyrosinase activity (L-dopa staining)” value in data set [6] was “concentration-dependently reduced the stimulator-enhanced intracellular tyrosinase inhibition”.

Take `COc1cc(/C=C2\SC(=S)N(C)C2=O)ccc1O` [Analog 4, (Z)-5-(4-Hydroxy-3-methoxybenzylidene)-3-methyl-2-thioxothiazolidin-4-one]: the results for the IC50 on mushroom tyrosinase [1] (setting [8]) and on mushroom tyrosinase [1] (setting [9]) were above 200 µM and 54.8 ± 16.1 µM, respectively. The “DPPH radical scavenging activity” value in data set [7] is on record as 82%.

As to `COc1ccc(/C=C2\SC(=S)N(C)C2=O)cc1O` [Analog 5, (Z)-5-(3-Hydroxy-4-methoxybenzylidene)-3-methyl-2-thioxothiazolidin-4-one], the IC50 came out at 13.8 ± 2.64 µM at mushroom tyrosinase [1] (setting [8]) and 3.6 ± 0.52 µM at mushroom tyrosinase [1] (setting [9]). At mushroom tyrosinase [2], the “type of tyrosinase inhibition (Lineweaver–Burk plots)” value is reported as “mixed-type inhibitors”. For the same molecule, the “cytotoxicity (cell viability)” value in the data set on B16F10 cells [3] was “did not exhibit cytotoxicity at ≤20 µM”. Besides, the “effect on stimulator-induced cellular tyrosinase activity” value in data set [4] was “concentration-dependently and significantly reduced”. For the same molecule, the “cellular tyrosinase inhibition compared with kojic acid (20 µM)” value in data set [4] (setting [10]) was “stronger inhibitory effects than kojic acid”. Further, the “intracellular melanin contents compared with kojic acid” value in the data set with B16F10 cells [5] (20 µM) is recorded as “levels similar to those in treatment with kojic acid”. For the same molecule, in the data set with B16F10 cells [5], the “effect on intracellular melanin contents enhanced by IBMX plus α-MSH” value is recorded as “significantly reduced the melanin contents”. Moreover, in data set [6], the “effect on stimulator-raised in situ intracellular tyrosinase activity (L-dopa staining)” value is listed as “concentration-dependently reduced the stimulator-enhanced intracellular tyrosinase inhibition”.

Take `COc1cc(/C=C2\SC(=S)N(C)C2=O)cc(OC)c1O` [Analog 6, (Z)-5-(4-Hydroxy-3,5-dimethoxybenzylidene)-3-methyl-2-thioxothiazolidin-4-one]: the figures for the IC50 on mushroom tyrosinase [1] (setting [8]) and on mushroom tyrosinase [1] (setting [9]) were above 200 µM and 57.4 ± 10.9 µM, respectively.

As to `CN1C(=O)/C(=C/c2ccc(O)c(Br)c2)SC1=S` [Analog 7, (Z)-5-(3-Bromo-4-hydroxybenzylidene)-3-methyl-2-thioxothiazolidin-4-one], the IC50 at mushroom tyrosinase [1] (setting [8]) is above 200 µM; on mushroom tyrosinase [1] (setting [9]) it was 33.2 ± 8.42 µM.

For the molecule `CN1C(=O)/C(=C/c2cc(Br)c(O)c(Br)c2)SC1=S` [Analog 8, (Z)-5-(3,5-Dibromo-4-hydroxybenzylidene)-3-methyl-2-thioxothiazolidin-4-one], the IC50 on mushroom tyrosinase [1] (setting [8]) and on mushroom tyrosinase [1] (setting [9]) was above 200 µM in each case.

As to `O=c1cc(CO)occ1O` [Kojic acid, reference compound], the “decrease of intracellular melanin contents” value in the data set on B16F10 cells [5] (20 µM, IBMX plus α-MSH (raised melanin 4.4-fold)) is 3.3 fold.

For the molecule `O=C1O[C@H]([C@@H](O)CO)C(O)=C1O` [L-Ascorbic acid, reference compound], the “DPPH radical scavenging activity” value in data set [7] came to 97%.

The values are drawn from article PMC11206987, “Investigation of the Efficacy of Benzylidene-3-methyl-2-thioxothiazolidin-4-one Analogs with Antioxidant Activities on the Inhibition of Mushroom and Mammal Tyrosinases” (Molecules, 2024).
